Laboratory results from ChEMBL document CHEMBL1201862, “PubChem BioAssay data set” (2004).
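Following 48 hours of exposure in 96-well plates, responses at five concentrations were used to interpolate endpoints linearly. At the GI50, growth is halved.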 The source made the active and inactive calls. Cut-off read from the data, not from the text of the source: active = GI50 up to about 1.1 µM and inactive = higher.

Tests used:
Test in all cases: inhibition of tumour cell growth, NCI panel, 48 h
M14 = tested on: M14
BT-549 = tested on: BT-549
U-251 = tested on: U-251
ACHN = tested on: ACHN
NCI-H460 = tested on: NCI-H460
SNB-75 = tested on: SNB-75
MCF7 = tested on: MCF7
SF-539 = tested on: SF-539
SW-620 = tested on: SW-620
MOLT-4 = tested on: MOLT-4
IGROV-1 = tested on: IGROV-1
HCT-116 = tested on: HCT-116
LOX IMVI = tested on: LOX IMVI
OVCAR-5 = tested on: OVCAR-5
SK-MEL-2 = tested on: SK-MEL-2
COLO 205 = tested on: COLO 205
MDA-MB-435 = tested on: MDA-MB-435
MDA-MB-231 = tested on: MDA-MB-231
HOP-92 = tested on: HOP-92
NCI-H522 = tested on: NCI-H522

Row | SMILES | GI50 (M14) | GI50 (BT-549) | GI50 (U-251) | GI50 (ACHN) | GI50 (NCI-H460) | GI50 (SNB-75) | GI50 (MCF7) | GI50 (SF-539) | GI50 (SW-620) | GI50 (MOLT-4) | GI50 (IGROV-1) | GI50 (HCT-116) | GI50 (LOX IMVI) | GI50 (OVCAR-5) | GI50 (SK-MEL-2) | GI50 (COLO 205) | GI50 (MDA-MB-435) | GI50 (MDA-MB-231) | GI50 (HOP-92) | GI50 (NCI-H522)
1 | OC(CC(CC(O)(C(F)(F)F)C(F)(F)F)=NN=C(CC(O)(C(F)(F)F)C(F)(F)F)CC(O)(C(F)(F)F)C(F)(F)F)(C(F)(F)F)C(F)(F)F | > 10 µM (inactive) | > 10 µM (inactive) | > 10 µM (inactive) | > 10 µM (inactive) | > 10 µM (inactive) | > 10 µM (inactive) | > 10 µM (inactive) | > 10 µM (inactive) | > 10 µM (inactive) | > 10 µM (inactive) | > 10 µM (inactive) | > 10 µM (inactive) | > 10 µM (inactive) | > 10 µM (inactive) | > 10 µM (inactive) | > 10 µM (inactive) | > 10 µM (inactive) | > 10 µM (inactive) | > 10 µM (inactive) | > 10 µM (inactive)
2 | CCCCCCCCCCCCCCCCCCOCC(COCCOCC[N+]1(CCCCCC(=O)[O-])CCCC1)Oc1ncccn1 (centres undefined) | 7.41 µM (inactive) | 7.29 µM (inactive) | 0.547 µM (active) | 10 µM (inactive) | 2.36 µM (inactive) | 2.61 µM (inactive) | 4.45 µM (inactive) | 4.36 µM (inactive) | 4.57 µM (inactive) | 4.92 µM (inactive) | 0.622 µM (active) | 1.82 µM (inactive) | 2.88 µM (inactive) | 2.99 µM (inactive) | 6.05 µM (inactive) | 1.11 µM (active) | 8.79 µM (inactive) | 8.22 µM (inactive) | 1.05 µM (active) | 1.34 µM (inactive)
3 | Cn1c(=O)c2c(nc(N3CCOCC3)n2CCCNCC(O)c2ccc(O)c(O)c2)n(C)c1=O (centres undefined) | > 100 µM (inactive) | > 100 µM (inactive) | > 100 µM (inactive) | > 100 µM (inactive) | > 100 µM (inactive) | > 100 µM (inactive) | > 100 µM (inactive) | > 100 µM (inactive) | > 100 µM (inactive) | 20.8 µM (inactive) | > 100 µM (inactive) | > 100 µM (inactive) | > 100 µM (inactive) | 23.9 µM (inactive) | > 100 µM (inactive) | > 100 µM (inactive) | 38.9 µM (inactive) | 0.0262 µM (active) | > 100 µM (inactive) | > 100 µM (inactive)
4 | COc1ccc2c(-c3ccc(O)cc3)c(Oc3ccccc3)c(=O)oc2c1 | > 100 µM (inactive) | 95.9 µM (inactive) | > 22.9 µM (inactive) | > 34.4 µM (inactive) | 11.9 µM (inactive) | > 33.9 µM (inactive) | 4.61 µM (inactive) | 24.7 µM (inactive) | – | 5.11 µM (inactive) | 3.78 µM (inactive) | > 23.2 µM (inactive) | 8.61 µM (inactive) | > 24.4 µM (inactive) | > 100 µM (inactive) | > 100 µM (inactive) | > 100 µM (inactive) | 18.8 µM (inactive) | 12 µM (inactive) | 8.2 µM (inactive)
5 | Cc1cc2occ(S(=O)(=O)NC(=O)Nc3ccc(Cl)cc3)c(=O)c2c(=O)o1 | > 100 µM (inactive) | > 100 µM (inactive) | > 100 µM (inactive) | 40.2 µM (inactive) | > 100 µM (inactive) | > 100 µM (inactive) | > 100 µM (inactive) | > 100 µM (inactive) | > 100 µM (inactive) | > 100 µM (inactive) | > 100 µM (inactive) | > 100 µM (inactive) | > 100 µM (inactive) | > 100 µM (inactive) | > 100 µM (inactive) | > 100 µM (inactive) | > 100 µM (inactive) | > 100 µM (inactive) | > 100 µM (inactive) | > 100 µM (inactive)
6 | COc1cc(S(=O)(=O)Nc2nc(-c3ccc(N4C(=O)/C(=C\c5cccs5)N=C4c4ccccc4)cc3)cs2)ccc1Cl | > 100 µM (inactive) | 34.5 µM (inactive) | 45.4 µM (inactive) | > 100 µM (inactive) | > 100 µM (inactive) | 51.4 µM (inactive) | 40 µM (inactive) | 49.9 µM (inactive) | > 100 µM (inactive) | 43.9 µM (inactive) | 42.2 µM (inactive) | 49.2 µM (inactive) | 32.1 µM (inactive) | > 100 µM (inactive) | 29.2 µM (inactive) | > 100 µM (inactive) | 55.6 µM (inactive) | 29.8 µM (inactive) | 28.1 µM (inactive) | 29.4 µM (inactive)
7 | O[C@H]1[C@H](O)[C@@H](O)[C@@]2(O)CC[C@@H]1N2 | > 100 µM (inactive) | > 100 µM (inactive) | > 100 µM (inactive) | > 100 µM (inactive) | > 100 µM (inactive) | > 100 µM (inactive) | > 100 µM (inactive) | > 100 µM (inactive) | > 100 µM (inactive) | > 100 µM (inactive) | > 100 µM (inactive) | > 100 µM (inactive) | > 100 µM (inactive) | > 100 µM (inactive) | > 100 µM (inactive) | > 100 µM (inactive) | > 100 µM (inactive) | > 100 µM (inactive) | > 100 µM (inactive) | > 100 µM (inactive)
8 | COC12C(COC(=O)NCCO)C3=C(C(=O)C(C)=C(N)C3=O)N1CC1NC12 (centres undefined) | 11.5 µM (inactive) | 54.5 µM (inactive) | 4.05 µM (inactive) | 6.59 µM (inactive) | 5.01 µM (inactive) | 17.4 µM (inactive) | 16 µM (inactive) | 7.83 µM (inactive) | 16.7 µM (inactive) | 35.2 µM (inactive) | 29.2 µM (inactive) | 18.9 µM (inactive) | 13.8 µM (inactive) | 28.7 µM (inactive) | 30.9 µM (inactive) | 37.7 µM (inactive) | 140 µM (inactive) | 233 µM (inactive) | 30 µM (inactive) | 14.5 µM (inactive)
9 | CCn1c2ccc(C(=O)CCCN3CCCCC3)cc2c2cc(C(=O)CCCN3CCCCC3)ccc21 | 2.04 µM (inactive) | 16.9 µM (inactive) | 2.13 µM (inactive) | 1.74 µM (inactive) | 0.998 µM (active) | 2.24 µM (inactive) | 1.58 µM (inactive) | 1.77 µM (inactive) | 1.01 µM (active) | 0.524 µM (active) | 2.08 µM (inactive) | 1.78 µM (inactive) | 1.86 µM (inactive) | 6.95 µM (inactive) | 1.78 µM (inactive) | 2.67 µM (inactive) | 1.72 µM (inactive) | 1.83 µM (inactive) | 10.4 µM (inactive) | 1.56 µM (inactive)
10 | O=C(c1cccs1)N(C(=S)OC12CC3CC(CC(C3)C1)C2)c1ccccc1 | 19.2 µM (inactive) | 35.3 µM (inactive) | 29.1 µM (inactive) | 33 µM (inactive) | 33.3 µM (inactive) | 85.7 µM (inactive) | 30.7 µM (inactive) | 34.5 µM (inactive) | 40.7 µM (inactive) | 26.1 µM (inactive) | – | 22.2 µM (inactive) | 22.5 µM (inactive) | 29.4 µM (inactive) | 18.2 µM (inactive) | 17.7 µM (inactive) | 29.8 µM (inactive) | 30 µM (inactive) | 24.8 µM (inactive) | 17.2 µM (inactive)
11 | O=C(NNc1ccnc2cc(Cl)ccc12)/C(=C\c1ccccc1Cl)NC(=O)c1ccccc1 | 31.3 µM (inactive) | 33.8 µM (inactive) | 17.3 µM (inactive) | 25.4 µM (inactive) | 42.1 µM (inactive) | 39.3 µM (inactive) | 15.5 µM (inactive) | 27.7 µM (inactive) | 37.9 µM (inactive) | – | 12.5 µM (inactive) | 42.7 µM (inactive) | 17.4 µM (inactive) | 39.7 µM (inactive) | 19.4 µM (inactive) | 25.2 µM (inactive) | 38.6 µM (inactive) | 74 µM (inactive) | 35.6 µM (inactive) | 18.5 µM (inactive)
12 | O=C1NC(=O)C(c2c[nH]c3ccccc23)=C1c1cn(C(c2ccccc2)(c2ccccc2)c2ccccc2)cn1 | 4.76 µM (inactive) | 12.7 µM (inactive) | 4.25 µM (inactive) | 4.8 µM (inactive) | 3.66 µM (inactive) | 10.2 µM (inactive) | 3.05 µM (inactive) | 15.4 µM (inactive) | 8.81 µM (inactive) | 2.48 µM (inactive) | 8.87 µM (inactive) | 3.34 µM (inactive) | 6.95 µM (inactive) | 8.73 µM (inactive) | 11.2 µM (inactive) | 3.73 µM (inactive) | 3.92 µM (inactive) | 12.8 µM (inactive) | 7.13 µM (inactive) | 8.75 µM (inactive)
13 | C[C@]12CCC(=O)C=C1CC[C@@H]1[C@@H]2CC[C@]2(C)C(=O)/C(=C/c3ccc([N+](=O)[O-])cc3)C[C@@H]12 | 29.4 µM (inactive) | 6.3 µM (inactive) | – | 2.36 µM (inactive) | 9.57 µM (inactive) | 42 µM (inactive) | 0.621 µM (active) | 79.3 µM (inactive) | > 100 µM (inactive) | 2.77 µM (inactive) | > 100 µM (inactive) | 9.57 µM (inactive) | 37.9 µM (inactive) | > 100 µM (inactive) | 62.5 µM (inactive) | 7.41 µM (inactive) | 6.04 µM (inactive) | 75.2 µM (inactive) | > 100 µM (inactive) | 4.66 µM (inactive)
14 | COC1=NC(NC2OCC(O)C(O)C2O)=C(NC(C)=O)CN1C (centres undefined) | > 100 µM (inactive) | > 100 µM (inactive) | – | > 100 µM (inactive) | > 100 µM (inactive) | > 100 µM (inactive) | > 100 µM (inactive) | > 100 µM (inactive) | > 100 µM (inactive) | > 100 µM (inactive) | – | > 100 µM (inactive) | > 100 µM (inactive) | > 100 µM (inactive) | > 100 µM (inactive) | > 100 µM (inactive) | > 100 µM (inactive) | > 100 µM (inactive) | > 100 µM (inactive) | > 100 µM (inactive)
